Laboratory results as given in the NIST ThermoML archive (doi:10.1016/j.jct.2011.11.004).
Values joined by “and” are separate entries in the source; they are usually repeats but may differ in a detail not shown here. Equal entries are not always repeated.

Details: Liquid, Transpiration method

CN(C)CCCN(C)C [N,N,N',N'-tetramethyl-1,3-propanediamine]
Details	vapor or sublimation pressure
273.5 K	0.1509 kPa and 0.1417 kPa
274.2 K	0.1541 kPa
275 K	0.1633 kPa
275.6 K	0.1714 kPa
276.1 K	0.1754 kPa
276.6 K	0.1837 kPa
277.1 K	0.191 kPa
278.4 K	0.2056 kPa
279.2 K	0.2168 kPa
281.1 K	0.2546 kPa
283.4 K	0.2873 kPa and 0.3004 kPa
285.8 K	0.3528 kPa
287.6 K	0.4012 kPa
289 K	0.455 kPa
294.3 K	0.6329 kPa
295.7 K	0.6783 kPa
299.2 K	0.8136 kPa and 0.8194 kPa
300.8 K	0.9386 kPa
304.3 K	1.143 kPa
305.8 K	1.227 kPa and 1.226 kPa
309.1 K	1.435 kPa
310.8 K	1.654 kPa
310.9 K	1.663 kPa
315.6 K	2.117 kPa and 2.069 kPa and 2.116 kPa
323.1 K	3.214 kPa

CCN(CC)CCCN [N,N-diethylpropane-1,3-diamine]
Details	vapor or sublimation pressure
277.2 K	0.03765 kPa
279.1 K	0.04448 kPa
280.2 K	0.04785 kPa
283.2 K	0.06153 kPa
286.2 K	0.07622 kPa
287.7 K	0.08442 kPa
288.2 K	0.09379 kPa
289.2 K	0.09614 kPa
291.1 K	0.1087 kPa and 0.1173 kPa
292.1 K	0.1195 kPa
293.2 K	0.1316 kPa
295.2 K	0.1494 kPa and 0.1591 kPa
297.2 K	0.17 kPa
297.3 K	0.1835 kPa and 0.1811 kPa
297.4 K	0.1872 kPa
297.5 K	0.1799 kPa
298.2 K	0.1935 kPa
299.4 K	0.2021 kPa
299.5 K	0.2132 kPa
301.2 K	0.2397 kPa
303.1 K	0.274 kPa and 0.2527 kPa
303.3 K	0.2637 kPa
305.1 K	0.3138 kPa

CN(C)CCCN [N,N-dimethyl-1,3-propanediamine]
Details	vapor or sublimation pressure
273.5 K	0.1753 kPa
273.8 K	0.1802 kPa
274.2 K	0.1875 kPa
275.8 K	0.2076 kPa
275.9 K	0.2029 kPa
276.4 K	0.2181 kPa
277.8 K	0.2407 kPa
278.1 K	0.2481 kPa
278.4 K	0.2539 kPa
281.1 K	0.2962 kPa
281.4 K	0.3109 kPa
283.4 K	0.3594 kPa and 0.3558 kPa and 0.3618 kPa
285.8 K	0.4176 kPa
286.2 K	0.4454 kPa
288.1 K	0.5012 kPa and 0.4936 kPa
288.7 K	0.5167 kPa
288.8 K	0.5086 kPa
289.2 K	0.5356 kPa and 0.538 kPa
291.7 K	0.628 kPa
292.1 K	0.6355 kPa and 0.6539 kPa
293 K	0.6977 kPa
294.9 K	0.7794 kPa
295.2 K	0.8075 kPa
296.9 K	0.8821 kPa
297.8 K	0.9313 kPa
298.2 K	0.981 kPa
298.9 K	1.011 kPa
299.7 K	1.058 kPa

CNCCCN [N-methyl-1,3-diaminopropane]
Details	vapor or sublimation pressure [kPa]
276.2 K	0.09113
279.3 K	0.1163
282.3 K	0.1481
285.2 K	0.1855
288.2 K	0.2287
291.2 K	0.2973
292.7 K	0.3328
294.1 K	0.3667
297.1 K	0.4634
298.8 K	0.5298
300.2 K	0.5889
303.2 K	0.7223
